{"source": "patent US20260297508A1", "about": "“MODULATORS OF PROTEIN SECRETION” (SANOFI, priority 2023, published 2026)", "key": {"[1]": {"test_system": "biotin-induced antibody release, U2OS clone #7 cells", "test": "High-throughput RUSH screen: biotin-induced cytoplasmic GFP signal decay (antibody release), U2OS clone #7", "type": "cell-based, human", "description": "FIGS. 4A-4C show the high-throughput screening of chemical compound libraries for the identification of modulators of protein secretion. […] U2OS clone #7 is plated in 384-well plates and incubated for 24 h before treatment with each compound of the Prestwick, ICCB Known Bioactives, or Autophagy Compound Library at 2 concentrations, low and high (with a 10-fold difference). […] The results of the Prestwick library screening at the low drug concentration are plotted. Brefeldin A was used as a positive control of the inhibition of secretion. The compounds causing a cytoplasmic GFP intensity below that observed for biotin-only treated cells are potential enhancers of protein secretion.\nU2OS cells were transfected with the streptavidin-KDEL plasmid using Lipofectamine 2000 (Thermo Fisher Scientific) and selected in medium supplemented with G418 (400 μg/mL, Gibco-Invitrogen) for 2 weeks. Limiting dilution in 96-well plates was used for single cell isolation from the selected pool. Clones were amplified and selected based on streptavidin immunofluorescence. Clone #BD6 showing the highest streptavidin expression was further expanded in medium supplemented with G418 (200 μg/mL) and transfected with the anti-PD-L1 IgG RUSH plasmid using Lipofectamine 2000 and selected in medium supplemented with G418 (200 μg/mL) and hygromycin (100 μg/mL, Santa Cruz Biotechnology) for 2 weeks. Limiting dilution in 96-well plates was used for single cell isolation from clone #BD6-derived selected pool. Clones were amplified and selected based on GFP fluorescence and clone #7 was selected for further characterization and screening campaigns.\nU2OS clone #7 cells were seeded in black 384-well imaging plates (Greiner bio one), 2,000 cells/well, and incubated for 24 h at 37° C. in a humidified incubator with 5% CO2. Cells were treated on the next day with the compounds from either the Prestwick library at […], the ICCB Known Bioactives library at 1/100^e or 1/1000^e, or the autophagy compound library at 10 μM or 1 μM for 4 h. […] Cells were then fixed as described above and processed for subsequent automated image acquisition using a robot-assisted IXM XL BioImager (Molecular Devices, Sunnyvale, CA, USA) equipped with a Sola light source (Lumencor, Beaverton, OR, USA), adapted excitation and emission filters (Semrock) a 16-bit monochrome sCMOS PCO.edge 5.5 camera (PCO, Kelheim, Germany). A 20× PlanAPO objective (Nikon, Tokyo, Japan) was used to acquire a minimum of 4 view fields in each well. The acquired images were processed using the open-access R software (https://www.r-project.org) with the help of freely available packages EBImage (available on the Bioconductor repository https://www.bioconductor.org), and RBioFormats (https://github.com/aoles/RBioFormats), and the custom packages MetaxpR (https://github.com/asauvat/MetaxpR) and MorphR (https://github.com/kroemerlab/MorphR). Nuclei were first detected using Hoechst 33342 signal and used as a marker to detect cytoplasmic areas based on GFP signal, allowing for the evaluation of cytoplasmic GFP intensity. Data were thereafter extracted and statistically evaluated using R (https://www.r-project.org). Data were normalized using negative and positive controls, reduced and transformed into a Z-score. The experiments were repeated manually at low scale with selected drugs to confirm their effects on secretion, in this second set of assays, U2OS clone #7 cells incubated with secretion inhibitors were fixed and stained with Hoechst as described above for imaging and viability determination based on cell counts.\nWe next sought to use clone #7 in screening campaigns for the identification of drugs capable of enhancing or inhibiting antibody secretion. […] Cell counting was facilitated by nuclear counterstaining with Hoechst 33324 in order to assess viability and distinguish drug effects on the secretion kinetics from direct cytotoxicity and select relevant drugs for further characterization. […]"}, "D3/D2 receptor": {"test_system": "D3/D2 receptor", "conditions": "cited from earlier work"}, "D1 receptors": {"test_system": "D1 receptors", "conditions": "cited from earlier work"}, "[2]": {"test_system": "human PD-L1 (CHO-PDL1 cells)", "test": "Flow cytometry binding to PD-L1-expressing CHO cells", "conditions": "FACS", "source_text": "(§1) FIGS. 3A-F show the characterization of the binding capacity of the anti-PD-L1 RUSH antibody released through the biotin-activated RUSH system (FIGS. 3A, 3C, and FIG. 3E) Schematic representation of the antibody binding to PD-L1^pos cells and detection by flow cytometry. […] Dark grey, binding to PD-L1^pos CHO cells (CHO-PDL1); light grey, binding to PD-L1^neg parental CHO cells (CHO-K1). Antibody binding is detected by means of an indirect immunofluorescence assay with a secondary anti-Fc APC conjugated or by direct measurement of GFP fluorescence.\n(§2) Human osteosarcoma U2OS cells obtained from the Kroemer lab were maintained at 37° C. in a humidified incubator with 5% CO2 in Dulbecco's Modified Eagle Medium (DMEM) supplemented with 10% Fetal Bovine Serum (FBS), 1% penicillin-streptomycin and 1% HEPES (Gibco, Carlsbad, CA). CHO-K1 (CCL-61) cells were obtained from the ATCC and cultured at 37° C. in a humidified incubator with 5% CO2 in Nutrient Mixture F-12 Ham's (Sigma, Saint-Louis, MO) supplemented with 10% FBS and 2 mM L-Glutamine (Gibco). PD-L1-expressing CHO cells were cultured in similar conditions in medium supplemented with 7.5 μg/mL puromycin (Gibco). The Prestwick, the BML-2840 ICCB Known Bioactives and the Autophagy Compounds libraries were purchased from Prestwick Chemicals (Illkirch, France), Enzo Life Sciences (Farmingdale, NY), and TargetMol (Boston, MA), respectively. […]"}, "CHO-K1 cells": {"test_system": "CHO-K1 cells", "test": "Flow cytometry binding to PD-L1neg parental CHO cells", "conditions": "FACS", "source_text": "as §1, §2"}, "[3]": {"test_system": "GFP-tagged RUSH antibody trafficking, U2OS clone #7 cells", "test": "Time lapse / fluorescence microscopy of GFP-tagged antibody trafficking in clone #7", "type": "cell-based, human", "source_text": "(§3) FIGS. 2A-2F show characterization of the anti-PD-L1 antibody RUSH system. […] Molecular mass standards (in kDa) are indicated on the left in panel FIG. 2D. The structures of the proteins detected by immunoblot are indicated based on the scheme shown in FIG. 1B and include antibody heavy and light chains, GFP, SBP, and a linker with a furin cleavage site. The truncated shape at the antibody C-terminus represents linker residues left after cleavage by furin. Results are representative of at least 3 independent experiments.\nU2OS clone #7 cells were seeded in black 96-well imaging plates (Greiner bio one, Kremsmünster, Austria). After 24 h, the medium was removed, cells were rinsed with 37° C. pre-heated PBS and fixed in PBS supplemented with 4% paraformaldehyde (PFA, Sigma) and 1 μg/mL Hoechst (Life Technologies, Carlsbad, CA, USA) for 20 min under agitation at room temperature (RT). Cells were rinsed with PBS before addition of a 5% FBS/0.3% Triton X-100/PBS permeabilizing solution for 30 min under agitation at RT. Cells were rinsed with PBS and incubated overnight under agitation at 4° C. with the primary antibody in 1% BSA/PBS. Cells were washed with PBS and incubated for 45 min under agitation at RT with the secondary antibody in 1% BSA/PBS. Finally, cells were washed, and processed for image acquisition using an IXM XL BioImager (Molecular Devices, Sunnyvale, CA)."}, "[4]": {"test_system": "RUSH antibody release and furin processing, U2OS clone #7 cells", "test": "Western blot of cell lysates and concentrated supernatants of clone #7", "type": "cell-based, human", "conditions": "40 μM biotin, 4 h; FIG. 2C", "source_text": "as §3\nU2OS clone #7 cells were seeded in T-175 flasks and kept for 24 h at 37° C. in a humidified incubator with 5% CO2. […] At the end of the incubation time, cells were harvested and lysed in RIPA buffer (Thermo Fisher Scientific) supplemented with protease and phosphatase inhibitors (Roche, Basel, Switzerland). Additionally, cell culture supernatants were collected and concentrated ~100-fold in Amicon 50 kDa filter unit (Sigma) according to the manufacturer's instructions. Cell lysate and concentrated supernatant protein concentrations were determined using the BCA™ protein assay kit (Thermo Fisher Scientific). […] The membranes were then washed 3 times for 5 min with 0.01% Tween-20/TBS and peroxidase activity was evaluated with Amersham ECL Primer Western Blotting Detection Reagent (GE Healthcare, Little Chalfont, UK) on ImageQuant™ LAS4000 (GE Healthcare)."}}, "data": [{"compound": "CCCN(CCC)CCc1cccc2c1CC(=O)N2", "note": "[ropinirole, 4-[2-(dipropylamino)ethyl]-1,3-dihydroindol-2-one]", "values": [{"measurement": "secretion activator at both low and high concentration (consistently decreased fluorescent signal, among 20 best activators)", "setting": "[1]; Prestwick library, low and high concentration, 4 h compound, then 40 μM biotin 1 h", "value": "fulfilled these criteria"}, {"measurement": "decrease of intracytoplasmic GFP fluorescence signal (biotin-stimulated RUSH system)", "setting": "[1]; screening campaigns, summary", "value": "consistently decreased intracytoplasmic GFP fluorescence"}, {"measurement": "D3/D2 receptor agonism", "setting": "D3/D2 receptor", "value": "potent D3/D2 receptor agonist"}, {"measurement": "affinity for D1 receptors", "setting": "D1 receptors", "value": "no affinity"}]}, {"compound": "anti-PD-L1: reference anti-human PD-L1 antibody produced from published Atezolizumab heavy and light chains sequences", "values": [{"measurement": "binding to CHO-PDL1 cells", "setting": "[2]", "value": "binding to PD-L1^pos (CHO-PDL1)"}, {"measurement": "binding to CHO-K1 cells", "setting": "CHO-K1 cells", "value": "not PD-L1^neg CHO (CHO-K1) cells"}]}, {"compound": "O=C(O)CCCC[C@@H]1SC[C@@H]2NC(=O)N[C@@H]21", "note": "[biotin]", "values": [{"measurement": "time of relocation of the GFP signal to the Golgi apparatus", "setting": "[3]; 40 μM biotin", "value": "40 to 120", "unit": "min"}, {"measurement": "time to complete cytoplasmic GFP signal decay", "setting": "[3]; 40 μM biotin", "value": "≤ 4", "unit": "h"}, {"measurement": "GFP/streptavidin co-localization", "setting": "[3]; 4 h after addition of biotin, FIG. 2B", "value": "lost 4 h after addition of biotin"}, {"measurement": "Pearson's correlation coefficient (PCC), hook / GFP-tagged antibody colocalization", "setting": "[3]; in the presence of biotin, 4 h, FIG. 2B", "value": 0.29}, {"measurement": "Western blot signal intensity in cell lysate", "setting": "[4]", "value": "intensity of the signal was lower"}]}]}
